How the values were obtained:
Format in all cases: in vivo
[1] = test system: soybean plants (shoot apical meristem); assay: Field trial 2: soybean seed production after spraying the shoot apical meristem
Experimental: FIG. 2 provides an example of an increase in soybean seed production following the removal of apical dominance by spraying with a double pass of 0.1M methyl decanoate (220.6±21.96 seeds/plant on average) at the V3 stage of growth compared to untreated controls (147.88±13.59 seeds/plant on average) conducted in Mt. Pulaski, Illinois. […] Asterisks show significance differences at the 0.05 level, + indicates a marginally significant difference at <0.10.
Field trial 2 was conducted at GroAlliance in Mt Pulaski, Illinois and planted with a soybean variety. Soybean plants were treated with a spray containing 0.10 M methyl decanoate and polyethylene sorbitan monolaurate. Soybean plants were sprayed using individual chemical backpack spray units. The soybean plants were treated with methyl decanoate at or between the growth stages of V3 and V4.
The test field was subdivided into plots with the dimensions of five rows by 10 feet. Two plots were designated for each soybean variety for spray treatment and distributed geographically across the full test field. Untreated control plots and mechanically clipped plants at the same growth stage were adjacent to the test plot areas.

[2] = test system: soybean plants (shoot apical meristem); assay: Field trial 1: soybean seed production after spraying the shoot apical meristem
Experimental: FIG. 1 provides an example of an increase in soybean seed production following the removal of apical dominance by spraying with a double pass of 0.1M methyl decanoate (199.0±14.14 seeds/plant on average) at the V5 stage of growth compared to untreated controls (160.47±5.33 seeds/plant on average) conducted in Pleasant Plains, Illinois. […] Asterisks show significance differences at the 0.05 level.
Field trial 1 was conducted in Pleasant Plants, Illinois. A single soybean variety was used in the field trial. The soybean variety was planted in 20 plots. Each plot was composed of 8 rows of plants spaced 30 inches apart and was 50 feet long by 20 feet wide. Soybeans were treated with 0.10 M methyl decanoate spray. An undiluted surfactant, polyoxyethylene sorbitan monolaurate, was added in equal weight to the fatty ester. Additional spray was applied by completion of a second pass with 0.10 M methyl decanoate spray. The second pass was completed immediately after the initial treatment of each row to saturate the apical meristem.
Soybean plants were sprayed using an individual chemical spray backpack. The plants were sprayed with approximately 2.5 gallons/1000 sq feet of 0.1 M (or an equivalent of 110 gallons/acre) with the double pass. Soybean plants were sprayed with methyl decanoate at the V5 growth stage.
The overall experiment was designed to distribute untreated control plots and mechanically clipped plants at the same growth stage with the methyl decanoate treated variety across the test field.

[3] = test system: soybean plants (shoot apical meristem); assay: Field trial 3: soybean seed production after spraying the shoot apical meristem
Experimental: FIG. 3 provides an example of an increase in soybean seed production following the removal of apical dominance by spraying with a double pass of 0.1M methyl decanoate (97.85±4.43 seeds/plant on average) at the V4-V6 stage of growth compared to untreated controls (79.81±3.09 seeds/plant on average) conducted in Lowell, Indiana. […] Asterisks show significance differences at the 0.05 level.
Field trial 3 was conducted in Lowell, Indiana and a single soybean variety was tested. Soybean plants were treated with a double pass of methyl decanoate at a concentration of 0.10 M. The methyl decanoate spray contained an undiluted surfactant, polyoxyethylene sorbitan monolaurate, that was added in equal weight to the fatty ester.
Soybean plants were treated the methyl decanoate spray using a backpack spray unit. Soybeans were sprayed in between growth stages V4-V6. The test plots were 21 rows by 50 feet.

In the case of `CCCCCCCCCC(=O)OC` [methyl decanoate], the “seed yield compared to untreated control plants (in words)” value ([1]; 0.10 M spray with surfactant, at or between V3 and V4) was “increased seed yield”, the “higher seed production than the untreated control” value ([1]; double pass of 0.1M spray at V3 stage, Mt. Pulaski, Illinois, F=2.74, p=0.084) was 38.4% and the “soybean seed production (seeds/plant on average)” value ([1]; double pass of 0.1M spray at V3 stage, Mt. Pulaski, Illinois, untreated controls 147.88±13.59) was 220.6±21.96 seeds/plant. The “seed yield compared to untreated control plants (in words)” value ([2]; 0.10 M spray with polyoxyethylene sorbitan monolaurate, V5 growth stage) was “increased seed yield”, the “higher seed production than the untreated control” value ([2]; double pass of 0.1M spray at V5 stage, Pleasant Plains, Illinois, F=3.33, p=0.046) was 24% and the “soybean seed production (seeds/plant on average)” value ([2]; double pass of 0.1M spray at V5 stage, Pleasant Plains, Illinois, untreated controls 160.47±5.33) was 199.0±14.14 seeds/plant. The “seed yield compared to untreated control plants (in words)” value ([3]; double pass 0.10 M spray with polyoxyethylene sorbitan monolaurate, V4-V6) was “increased seed yield”, the “higher seed production than the untreated control” value ([3]; double pass of 0.1M spray at V4-V6 stage, Lowell, Indiana, F=5.63, p=0.005) was 22.6% and the “soybean seed production (seeds/plant on average)” value ([3]; double pass of 0.1M spray at V4-V6 stage, Lowell, Indiana, untreated controls 79.81±3.09) was 97.85±4.43 seeds/plant.

From patent publication US12599128B2, “Composition and method for improving agronomic traits of a plant” (THE BOARD OF TRUSTEES OF THE UNIVERSITY OF ILLINOIS, priority 2024, dated 2026)
